System: mRNA expression in cardiovascular tissues
Assay: Affymetrix GeneChip mRNA expression profiling of monkey tissues (iliac vein, pulmonary vein, aorta, carotid artery, heart) after two-week oral-gavage treatment
Conditions: iliac vein; group avg, Vioxx without A60055

`Cc1ccc(Nc2c(F)cccc2Cl)c(CC(=O)O)c1` [COX189, Lumiracoxib] was tested, and the “HFE (211329_x_at) avg fold change vs control” value was 0.9 fold, the “HFE (211332_x_at) avg fold change vs control” value was 1.1 fold and the “HFE (211863_x_at) avg fold change vs control” value was 1.3 fold. The “HFE (211866_x_at) avg fold change vs control” value was 1.2 fold, the “HHL (203020_at) avg fold change vs control” value was 1.0 fold and the “HLA-A (211528_x_at) avg fold change vs control” value was 1.3 fold. The “HLA-A (211529_x_at) avg fold change vs control” value was 1.3 fold, the “HLA-A (211530_x_at) avg fold change vs control” value was 1.6 fold and the “HLA-A (215313_x_at) avg fold change vs control” value was 1.3 fold. For the same compound, the “HLA-B (208729_x_at) avg fold change vs control” value was 1.3 fold, the “HLA-B (209140_x_at) avg fold change vs control” value was 1.2 fold and the “HLA-B (211911_x_at) avg fold change vs control” value was 1.3 fold. For the same compound, the “HLA-C (208812_x_at) avg fold change vs control” value was 1.1 fold, the “HLA-C (214459_x_at) avg fold change vs control” value was 1.2 fold and the “HLA-C (216526_x_at) avg fold change vs control” value was 1.4 fold. The “HLA-DMA (217478_s_at) avg fold change vs control” value was 1.2 fold, the “HLA-DMB (203932_at) avg fold change vs control” value was 1.2 fold and the “HLA-DQA1 (212671_s_at) avg fold change vs control” value was 1.6 fold. The “HLA-DQB1 (209823_x_at) avg fold change vs control” value was 1.0 fold, the “HLA-DQB1 (211654_x_at) avg fold change vs control” value was 1.8 fold and the “HLA-DQB1 (211656_x_at) avg fold change vs control” value was 1.3 fold. The “HLA-DQB2 (212998_x_at) avg fold change vs control” value was 1.4 fold, the “HLA-DRA (208894_at) avg fold change vs control” value was 1.2 fold and the “HLA-DRA (210982_s_at) avg fold change vs control” value was 1.1 fold. For the same compound, the “HLA-DRB1 (215193_x_at) avg fold change vs control” value was 1.5 fold, the “HLA-DRB3 (209312_x_at) avg fold change vs control” value was 1.3 fold and the “HLA-DRB6 (217362_x_at) avg fold change vs control” value was 1.3 fold. The “HLA-E (200905_x_at) avg fold change vs control” value was 1.2 fold, the “HLA-E (217456_x_at) avg fold change vs control” value was 1.4 fold and the “HLA-F (204806_x_at) avg fold change vs control” value was 1.2 fold. The “HLA-F (221875_x_at) avg fold change vs control” value was 1.2 fold, the “ICAM1 (202638_s_at) avg fold change vs control” value was 0.9 fold and the “ICAM1 (215485_s_at) avg fold change vs control” value was 1.0 fold. For the same compound, the “ICSBP1 (204057_at) avg fold change vs control” value was 1.2 fold, the “IFI27 (202411_at) avg fold change vs control” value was 4.2 fold and the “IFI30 (201422_at) avg fold change vs control” value was 1.1 fold. The “IFI44 (214453_s_at) avg fold change vs control” value was 2.0 fold, the “IFIT1 (203153_at) avg fold change vs control” value was 1.1 fold and the “IFIT2 (217502_at) avg fold change vs control” value was 1.4 fold. The “IFIT4 (204747_at) avg fold change vs control” value was 0.9 fold, the “IFITM2 (201315_x_at) avg fold change vs control” value was 1.2 fold and the “IFITM3 (212203_x_at) avg fold change vs control” value was 1.0 fold. The “IGF1 (209541_at) avg fold change vs control” value was 0.9 fold, the “IGFBP4 (201508_at) avg fold change vs control” value was 0.6 fold and the “IL1A (208200_at) avg fold change vs control” value was 1.6 fold. The “IL2RG (204116_at) avg fold change vs control” value was 1.3 fold, the “IL27RA (205926_at) avg fold change vs control” value was 1.1 fold and the “INDO (210029_at) avg fold change vs control” value was 1.2 fold. The “INPP5D (203332_s_at) avg fold change vs control” value was 1.2 fold, the “IRF1 (202531_at) avg fold change vs control” value was 1.3 fold and the “IRF7 (208436_s_at) avg fold change vs control” value was 1.6 fold. The “ISGF3G (203882_at) avg fold change vs control” value was 1.5 fold, the “ITGB2 (202803_s_at) avg fold change vs control” value was 1.0 fold and the “JAK1 (214377_s_at) avg fold change vs control” value was 1.1 fold. The “KLKB1 (206541_at) avg fold change vs control” value was 1.0 fold, the “LAIR1 (208071_s_at) avg fold change vs control” value was 1.1 fold and the “LCK (204890_s_at) avg fold change vs control” value was 1.4 fold. For the same compound, the “LCP2 (205270_s_at) avg fold change vs control” value was 1.2 fold, the “LILRB1 (207857_at) avg fold change vs control” value was 0.7 fold and the “LILRB1 (211100_x_at) avg fold change vs control” value was 1.0 fold. The “LILRB3 (208594_x_at) avg fold change vs control” value was 1.0 fold, the “LILRB3 (210225_x_at) avg fold change vs control” value was 1.1 fold and the “LRMP (204674_at) avg fold change vs control” value was 1.6 fold. The “LY86 (205859_at) avg fold change vs control” value was 0.9 fold, the “LY96 (206584_at) avg fold change vs control” value was 1.0 fold and the “LYN (210754_s_at) avg fold change vs control” value was 0.8 fold. For the same compound, the “MAF (209348_s_at) avg fold change vs control” value was 0.9 fold, the “PCOLCE (202465_at) avg fold change vs control” value was 0.8 fold and the “PLA2G4C (209785_s_at) avg fold change vs control” value was 1.4 fold. The “PLCL2 (216217_at) avg fold change vs control” value was 0.9 fold, the “PLSCR1 (202446_s_at) avg fold change vs control” value was 1.0 fold and the “PRC1 (218009_s_at) avg fold change vs control” value was 1.0 fold. For the same compound, the “PRG1 (201858_s_at) avg fold change vs control” value was 0.9 fold, the “PRG1 (201859_at) avg fold change vs control” value was 0.9 fold and the “PTPN22 (206060_s_at) avg fold change vs control” value was 1.2 fold. For the same compound, the “PTPRC (207238_s_at) avg fold change vs control” value was 1.1 fold, the “SOCS3 (206360_s_at) avg fold change vs control” value was 1.0 fold and the “STAT1 (209969_s_at) avg fold change vs control” value was 1.4 fold. The “STAT1 (AFFX-HUMISGF3A/M97935_5_at) avg fold change vs control” value was 1.6 fold, the “STAT1 (AFFX-HUMISGF3A/M97935_MA_at) avg fold change vs control” value was 1.2 fold and the “STAT1 (AFFX-HUMISGF3A/M97935_MB_at) avg fold change vs control” value was 1.9 fold. For the same compound, the “TAPBP (208829_at) avg fold change vs control” value was 1.1 fold, the “TCTEL1 (201999_s_at) avg fold change vs control” value was 0.9 fold and the “TLR1 (210176_at) avg fold change vs control” value was 0.8 fold. The “TLR2 (204924_at) avg fold change vs control” value was 0.8 fold, the “TNFAIP3 (202643_s_at) avg fold change vs control” value was 1.2 fold and the “TNFAIP3 (202644_s_at) avg fold change vs control” value was 1.3 fold. For the same compound, the “TNFSF6 (210865_at) avg fold change vs control” value was 1.3 fold, the “TNFSF10 (202687_s_at) avg fold change vs control” value was 1.2 fold and the “TNFSF10 (202688_at) avg fold change vs control” value was 1.2 fold. The “TRGC2 (211144_x_at) avg fold change vs control” value was 1.3 fold, the “TRGC2 (216920_s_at) avg fold change vs control” value was 1.1 fold and the “VCAM1 (203868_s_at) avg fold change vs control” value was 0.9 fold. The “XCL1 (206366_x_at) avg fold change vs control” value was 1.7 fold, the “XCL1 (214567_s_at) avg fold change vs control” value was 1.3 fold and the “XLKD1 (219059_s_at) avg fold change vs control” value was 1.0 fold. For the same compound, the “cig5 (213797_at) avg fold change vs control” value was 1.8 fold.
